Laboratory results: patent US8470816B2, “Nitrogen-containing heterocyclic compound and use thereof” (Takeda Pharmaceutical Company Limited, priority 2007, dated 2013)

Columns and labels:
human NK1 receptor = human NK1 receptor (Homo sapiens (Human), UniProt P25103); assay: Human NK1 receptor binding assay: radioligand (125I-Bolton-Hunter-SP) binding inhibition using receptor from human lymphoblast cells (IM-9)
Procedure: 42, p. […] The receptor was prepared from human lymphoblast cells (IM-9).

[1] = biological target: human NK2 (hNK2) receptor (Homo sapiens (Human), UniProt P21452); assay: Human NK2 receptor binding assay: radioligand ([125I]-NK-A) binding inhibition using membrane fraction of CHO cells expressing hNK2 receptor; settings: CHO cell membrane fraction
human NK2 (hNK2) receptor, sequence (P21452 whole entry): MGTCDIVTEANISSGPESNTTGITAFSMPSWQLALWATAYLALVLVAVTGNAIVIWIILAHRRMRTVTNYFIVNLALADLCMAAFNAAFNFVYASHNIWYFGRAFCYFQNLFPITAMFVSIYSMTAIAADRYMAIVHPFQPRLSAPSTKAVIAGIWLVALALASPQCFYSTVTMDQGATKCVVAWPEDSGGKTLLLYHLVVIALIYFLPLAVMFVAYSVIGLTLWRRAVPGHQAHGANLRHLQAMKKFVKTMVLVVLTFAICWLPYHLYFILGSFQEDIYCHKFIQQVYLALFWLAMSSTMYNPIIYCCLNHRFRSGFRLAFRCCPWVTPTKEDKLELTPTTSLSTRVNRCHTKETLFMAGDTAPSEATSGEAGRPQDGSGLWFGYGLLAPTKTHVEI
Procedure: CHO cells expressing hNK2 receptor were cultured in a HAM-F12 medium containing 400 μg/mL geneticin, 100 U/mL penicillin, 100 μg/mL streptomycin and 10% inactivated serum. The medium was removed, the adhered cells were washed with PBS, and PBS containing 5 mM EDTA was added to detach the cells from the flask. The cells were collected by centrifugation, suspended in suspension buffer A (15 mM Tris-HCl (pH 7.5), 2 mM MgCl2, 0.3 mM ethylenediaminetetraacetic acid (EDTA), 1 mM O,O′-bis(2-aminoethyl)ethyleneglycol-N,N,N′,N′-tetraacetic acid (EGTA)), disrupted by a Polytron homogenizer (Kinematika), and centrifuged at 800×g for 10 min. The supernatant was recovered and ultracentrifuged at 100,000×g for 25 min.
Measurement buffer (50 mM Tris-HCl (pH 7.4), 0.02% bovine serum albumin, 2 μg/mL chymostatin, 40 μg/mL bacitracin, 40 μg/mL APMSF, 3 mM MnCl2) (50 μL) was added to a 96-well microassay plate. The membrane reference standard (20 μg/mL) suspended in a measurement buffer was added by 50 μL.
After reaction at 25° C. for 30 min, the reaction was quenched using a cell harvester (PerkinElmer) by rapid filtration on a GF/C filter plate, and the cells were washed 5 times with 250 μL of a 50 mM Tris-HCl buffer (pH 7.4) containing 0.02% bovine serum albumin. The GF/C filter plate was dried, MicroScinti-0 (PerkinElmer) was added by 20 μL, and the radioactivity was measured on a TopCount (PerkinElmer). The GF/C filter plate used had been immersed in 0.3% polyethyleneimine for one day.
The specific binding level is shown by a value obtained by subtracting non-specific binding level from the total binding level. The binding inhibitory activity of the test compound is shown by a ratio of the value obtained by subtracting the measurement value with addition of a test compound from the total binding level, to the value of the specific binding level.

[2] = biological target: human NK3 (hNK3) receptor (Homo sapiens (Human), UniProt P29371); assay: Human NK3 receptor binding assay: radioligand ([125I]-NK-B) binding inhibition using membrane fraction of CHO cells expressing hNK3 receptor; settings: CHO cell membrane fraction
human NK3 (hNK3) receptor, sequence (P29371 whole entry): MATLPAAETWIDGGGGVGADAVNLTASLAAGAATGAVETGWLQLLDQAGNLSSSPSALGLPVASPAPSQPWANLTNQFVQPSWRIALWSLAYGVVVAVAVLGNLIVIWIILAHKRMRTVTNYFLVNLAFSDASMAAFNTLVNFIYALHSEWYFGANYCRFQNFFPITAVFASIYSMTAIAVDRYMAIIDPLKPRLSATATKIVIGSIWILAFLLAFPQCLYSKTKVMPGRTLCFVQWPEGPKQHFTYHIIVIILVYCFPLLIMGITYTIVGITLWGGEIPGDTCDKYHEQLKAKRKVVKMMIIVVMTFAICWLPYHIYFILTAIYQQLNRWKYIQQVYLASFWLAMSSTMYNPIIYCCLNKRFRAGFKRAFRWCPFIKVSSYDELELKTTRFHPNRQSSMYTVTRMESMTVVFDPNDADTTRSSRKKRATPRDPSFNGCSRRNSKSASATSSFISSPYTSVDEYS
Procedure: CHO cells expressing hNK3 receptor were cultured in a MEMα medium (Nikken Seibutsu Igaku Kenkyusho, K.K.) containing 100 U/mL penicillin, 100 μg/mL streptomycin and 10% inactivated dialyzed serum. The medium was removed, the adhered cells were washed with PBS, and PBS containing 5 mM EDTA was added to detach the cells from the flask. The cells were collected by centrifugation, suspended in suspension buffer A (50 mM Tris-HCl (pH 7.4) containing 120 mM NaCl, 5 mM KCl, 2 μg/mL chymostatin, 40 μg/mL bacitracin, 40 μg/mL APMSF, 1 mM EDTA), disrupted by a Polytron homogenizer (Kinematika), and centrifuged at 800×g for 10 min. The supernatant was recovered and ultracentrifuged at 100,000×g for 25 min. The precipitation fraction was suspended in suspension buffer B (50 mM Tris-HCl (pH 7.4), 0.02% bovine serum albumin, 2 μg/mL chymostatin, 40 μg/mL bacitracin, 40 μg/mL APMSF, 3 mM MnCl2), and cryopreserved (−80° C.) as a receptor reference standard. […]
After reaction at 25° C. for 30 min, the reaction was quenched using a cell harvester (PerkinElmer) by rapid filtration on a GF/C filter plate, and the cells were washed 5 times with 250 μL of a 50 mM Tris-HCl buffer (pH 7.4) containing 0.02% bovine serum albumin. The GF/C filter plate was dried, MicroScinti-0 (Perkin Elmer) was added by 20 μL, and the radioactivity was measured on a TopCount (PerkinElmer). […]

human NK1 receptor, sequence (P25103 whole entry): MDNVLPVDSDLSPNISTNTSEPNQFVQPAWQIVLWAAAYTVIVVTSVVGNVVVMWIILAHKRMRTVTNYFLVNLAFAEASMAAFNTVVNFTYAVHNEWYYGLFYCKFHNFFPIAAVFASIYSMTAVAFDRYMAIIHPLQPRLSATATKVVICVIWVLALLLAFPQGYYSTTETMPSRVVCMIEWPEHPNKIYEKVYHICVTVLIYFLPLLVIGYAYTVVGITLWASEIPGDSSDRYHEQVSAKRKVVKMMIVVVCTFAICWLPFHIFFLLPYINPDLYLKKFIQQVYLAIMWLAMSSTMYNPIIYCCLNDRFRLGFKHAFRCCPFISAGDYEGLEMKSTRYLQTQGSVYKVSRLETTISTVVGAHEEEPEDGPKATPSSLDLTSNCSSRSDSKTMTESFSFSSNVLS

Row | SMILES | melting point | also measured
1 | CC(=O)N1CCC(C(=O)N2CC[C@@H](N(C)C(=O)c3ccc(N4CCOCC4)cc3)[C@H](c3ccc(Cl)c(Cl)c3)C2)CC1.O [Example 268, N-[(3R,4R)-1-[(1-acetylpiperidin-4-yl)carbonyl]-3-(3,4-dichlorophenyl)piperidin-4-yl]-N-methyl-4-morpholin-4-ylbenzamide monohydrate] | – | hNK1 % inh. (10 μM) (human NK1 receptor; 10 μM): 58.2% inh.; IC50 [1]: 0.42 nM
2 | CC(=O)N1CCC(C(=O)N2CC[C@@H](N(C)C(=O)c3ccc(-c4ccccc4)cc3)[C@H](c3ccc(Cl)c(Cl)c3)C2)CC1 (racemic) [Example 31, N-[(3R*,4R*)-1-[(1-acetylpiperidin-4-yl)carbonyl]-3-(3,4-dichlorophenyl)piperidin-4-yl]-N-methylbiphenyl-4-carboxamide] | – | IC50 [2]: 160 nM; IC50 (human NK1 receptor; radioligand binding inhibition, IM-9 cell receptor, read-out: hNK1 IC50): 410 nM; IC50 [1]: 1.7 nM
3 | CN(C(=O)c1ccc(Cl)cc1)[C@@H]1CCN(C(=O)Nc2ccc(F)nc2)C[C@H]1c1ccc(Cl)c(Cl)c1 [Example 516, (3R,4R)-4-{[(4-chlorophenyl)carbonyl](methyl)amino}-3-(3,4-dichlorophenyl)-N-(6-fluoropyridin-3-yl)piperidine-1-carboxamide] | 156 to 158 °C | –
4 | CC(=O)N1CCC(C(=O)N2CC[C@@H](N(C)C(=O)c3ccc(N4CCOCC4)cc3)[C@H](c3ccc(Cl)c(Cl)c3)C2)CC1.O (hydrate or solvate) [Example 268, N-[(3R,4R)-1-[(1-acetylpiperidin-4-yl)carbonyl]-3-(3,4-dichlorophenyl)piperidin-4-yl]-N-methyl-4-morpholin-4-ylbenzamide monohydrate] | 136 to 139 °C | –
5 | CC(=O)N1CCC(C(=O)N2C[C@@H](N(C)C(=O)c3cc(C(F)(F)F)cc(C(F)(F)F)c3)[C@H](c3ccc(Cl)c(Cl)c3)C2)CC1 (racemic) [Example 82, N-[(3S*,4R*)-1-[(1-acetylpiperidin-4-yl)carbonyl]-4-(3,4-dichlorophenyl)pyrrolidin-3-yl]-N-methyl-3,5-bis(trifluoromethyl)benzamide] | – | IC50 [1]: 2.2 nM
6 | CC(=O)N1CCC(C(=O)N2CC[C@@H](N(C)C(=O)c3ccc(Br)cn3)[C@H](c3ccc(Cl)c(Cl)c3)C2)CC1 | 128 to 130 °C | –

Further lines, with some results ahead:

Row | melting point | SMILES | also measured
7 | 113 to 115 °C | CC(=O)N1CCC(C(=O)N2CC[C@@H](N(C)C(=O)c3ccc(Cl)cc3)[C@H](c3ccc(Cl)c(Cl)c3)C2)CC1.O (hydrate or solvate) | –
8 | 128 to 131 °C | CN(C(=O)c1ccc(Cl)cc1)[C@@H]1CCN(C(=O)C2CCN(C(=O)CO)CC2)C[C@H]1c1ccc(Cl)c(Cl)c1.O (hydrate or solvate) | –
9 | 124 to 127 °C | CN(C(=O)c1ccc(C(F)(F)F)cc1)[C@@H]1CCN(C(=O)C2CCN(C(=O)CO)CC2)C[C@H]1c1ccc(Cl)c(Cl)c1.O (hydrate or solvate) | –
10 | 134 to 136 °C | COc1ccc(C(=O)N(C)[C@@H]2CCN(C(=O)C3CCN(C(C)=O)CC3)C[C@H]2c2ccc(Cl)c(Cl)c2)cc1 | –
11 | 130 to 132 °C | CN(C(=O)c1ccc(Br)cc1)[C@@H]1CCN(C(=O)C2CCN(C(=O)CO)CC2)C[C@H]1c1ccc(Cl)c(Cl)c1.O (hydrate or solvate) | –
